These results are taken from paper PMC2932867 (Human mutation, 2010).

Data set [1] addresses T1, human ATR (ATP:cob(I)alamin adenosyltransferase; hATR) (Homo sapiens, UniProt Q96EY8).
T1 sequence (Q96EY8 33-250): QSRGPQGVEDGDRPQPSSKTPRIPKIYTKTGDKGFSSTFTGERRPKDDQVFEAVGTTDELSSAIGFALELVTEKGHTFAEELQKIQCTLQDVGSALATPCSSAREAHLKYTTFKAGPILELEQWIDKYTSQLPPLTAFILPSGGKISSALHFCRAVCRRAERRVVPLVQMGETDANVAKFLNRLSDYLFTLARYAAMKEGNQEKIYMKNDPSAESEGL
Description: intrinsic fluorescence titration. The note with it: read-out: wild-type; 50 mM Tris-HCl pH 8.0. Format: binding.

Data set [2] concerns the target T2, human ATR (ATP:cob(I)alamin adenosyltransferase; hATR) (Homo sapiens, UniProt Q96EY8, I96T).
T2 sequence (Q96EY8 33-250 I96T): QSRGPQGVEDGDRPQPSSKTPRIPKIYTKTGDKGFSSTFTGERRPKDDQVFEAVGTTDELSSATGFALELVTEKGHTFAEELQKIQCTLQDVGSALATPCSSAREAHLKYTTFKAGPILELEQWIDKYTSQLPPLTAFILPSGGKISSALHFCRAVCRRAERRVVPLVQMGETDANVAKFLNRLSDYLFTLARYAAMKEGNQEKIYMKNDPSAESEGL
As to the kind of experiment: intrinsic fluorescence titration. As to conditions: read-out: p.I96T; 50 mM Tris-HCl pH 8.0. The format is binding.

The data set “SEC” deals with the molecule itself. Description: SEC.

CNCbl: the Kd is 7.8 ± 0.5 µM in data set [1] and 13.3 ± 0.3 µM in data set [2].

B1: ATP:cob(I)alamin adenosyltransferase p.I96T mutant, human, without the mitochondrial targeting sequence (enzyme, UniProt Q96EY8 33-250, looked up)
chain: QSRGPQGVEDGDRPQPSSKTPRIPKIYTKTGDKGFSSTFTGERRPKDDQVFEAVGTTDELSSATGFALELVTEKGHTFAEELQKIQCTLQDVGSALATPCSSAREAHLKYTTFKAGPILELEQWIDKYTSQLPPLTAFILPSGGKISSALHFCRAVCRRAERRVVPLVQMGETDANVAKFLNRLSDYLFTLARYAAMKEGNQEKIYMKNDPSAESEGL
As usually defined, the stoichiometry N is a count of units in the complex or per binding partner. On to B1, for which the “stoichiometry N” value in “SEC” amounted to 3.
